Assays:
[1] = test system: iron/ascorbate induced lipid peroxidation; test: Lipid peroxidation (LPO) model, heat-treated hepatic microsomes, TBA reactive substances; type: biochemical; settings: rat hepatic microsomes, reaction started with 10 uM FeSO4; mean ± s.e.m., n = 3-5
Procedure: Experiment 1: Lipid Peroxidation Model
Preparation of hepatic microsomes.
Male Wistar rats (200-220 g) obtained from Harlan Nederland B.V. (Horst, The Netherlands) were sacrificed by decapitation. Livers were removed and homogenized in ice-cold phosphate buffer (50 mM+0.1 mM EDTA, pH=7.4, 1:2 w/v). The homogenate was centrifuged at 10 000× g (20 min at 4° C.). Subsequently, the supernatant was centrifuged at 100 000× g for 60 min (4° C.). The pellet was resuspended in phosphate buffer and centrifuged again at 100 000× g (60 min, 4° C.). Finally the microsomal pellet was resuspended in phosphate buffer (2 g liver/ml) and 1 mL aliquots were stored at −80° C.
Microsomes were thawed and resuspended in ice-cold Tris-HCl buffer (50 mM, pH=7.4 at 37° C.) and washed by centrifugation. The pellet was resuspended in 2 mL 50 mM Tris-HCl buffer and heated to 100° C. for at least 2 min to remove all enzymatic factors just before resuspending and diluting it in ice-cold Tris buffer to 1.5 mg/mL.
Stock solutions of the flavonoids were freshly prepared in nitrogen-purged DMSO and nanopure water (1:1) just before use. The reaction was started by adding 10 uM freshly prepared FeSO4 in nitrogen-purged nanopure water. LPO was assayed by measuring thiobarbituric acid (TBA) reactive substances. At t=0, 5, 10, 15, 30, 45 and 60 min an 0.3 mL aliquot of the incubation was mixed with 2 mL of an ice-cold TBA-trichloroacetic acid-HCl-butylhydroxytoluene (BHT) solution to stop the reaction. After heating and centrifugation the absorbance at 535 vs 600 nm was determined. The TBA-trichloroacetic acid-HCl-butylhydroxytoluene solution was prepared by dissolving 41.6 mg TBA/10 ml trichloroacetic acid (16.8% w/v in 0.125 N HCl). To 10 ml TBA-trichloroacetic acid-HCl 1 ml BHT (1.5 mg/ml ethanol) was added.
The IC50 was determined by measuring the % LPO inhibition at several concentrations and interpolating the 50% inhibition point.

[2] = TEAC model (Trolox equivalent antioxidant capacity); settings: concentration of Trolox equivalent to 1 mM test compound; mean ± S.D., n = 3-5
Procedure: A solution of 2,2′-azino-bis(3-ethylbenzthiazoline-6-sulfonic acid) (1.23 mg/mL) and azobisamidinepropane (3.96 mg/mL) in 50 mM phosphate buffer (pH=7.4) was heated at 70° C. for 20 min. The amount of ABTS radicals was measured by determination of the absorbance at 734 nm.
Stock solutions of the flavonoids were freshly prepared in nitrogen-purged DMSO and nanopure water (1:1) just before use. A calibration curve of Trolox ((+/−)-6-hydroxy-2,5,7,8-tetramethyl-chroman-2-carboxylic acid) was made in a concentration range from 0 to 20 μM. A mixture of 50 μL test compound and 950 μL ABTS^−+ solution was incubated at 37° C. for 5 min. Subsequently the absorbance at 734 nm was determined on a UV/VIS Spectrophotometer.
The antioxidant-induced decrease in absorbance is directly related to the antioxidant capacity of the compound (solution) being tested.
The Trolox equivalent antioxidant capacity (TEAC) is defined as the concentration (mM) of Trolox having an antioxidant capacity equivalent to 1 mM of the test compound.

[3] = test system: isolated mouse left atrium; test: Isolated mouse left atrium model: protection against doxorubicin-induced negative inotropy; parameters: key: NP: No protection; settings: 250 μM flavonoid with 35 μM doxorubicin, electrically paced mouse left atrium
Procedure: Experiment 3: Isolated Mouse Left Atrium Model
In order to determine the cardioprotective properties of the compounds in vitro, the protection against doxorubicin-induced negative inotropy was studied, using the isolated mouse left atrium model.
The example compounds were tested for their protective effect on the negative inotropic action of doxorubicin on the isolated mouse left atrium. The testing model has been described earlier (de Jong et al.Ress Comm Chem Pathol Pharmacol 68, 275-289 (1990). In short, left atria were isolated from male Balb/c mice (18-22 g) and stimulated with square wave pulses of 3 ms duration at a frequency of 4 Hz. Incubation with […] doxorubicin causes a decrease in inotropy of 50% (after 1 h). Atria were incubated with 35 μM doxorubicin and 250 μM flavonoid. Inotropy was measured and expressed as % basal contractile force relative to t=0.

OVCAR-3 cells [4] = test: Antitumor activity of flavonoids, SRB growth inhibition assay; type: cell-based; settings: 72 h
Procedure: Experiment 6: Antitumor Activity of Flavonoids
Next to the use of flavonoids as medicaments in free radical mediated diseases, the presence of anti-tumor activity has been reported. Quercetin is the best known example (Molnar et al. Neoplasma, 28: 11-17 (1981)). Because of the possible use of these compounds in chemotherapy, it was checked whether the compounds affected cell growth.
On day 0 cultured OVCAR-3 cells were plated at a density of 5000 cells/well. After 24 h (day 1) the example compounds were added and after incubation of 72 h at 37° C. (day 4), growth inhibitory effects were evaluated with the standard SRB (sulforhodamine B) assay (Skehan et al. J. Natl. Cancer Inst., 82: 1107-1112 (1990)).

A2780 cells = test: Interference with antitumor activity of doxorubicin, MTT assay; type: cell-based; settings: Homo sapiens, A2780, 96 h, read-out: Dox IC50
Procedure: (§1) Experiment 5: Interference with the Antitumor Activity of Doxorubicin Because of the possible use of these compounds as adjuvants in the chemotherapy, it was checked whether the compounds influenced the negative effect of doxorubicin on cell growth. […] This observation further underlined the use of these compounds as adjuvant therapy in the protection of the side effects of cytostatics. On day 0 cultured OVCAR-3, MCF-7 and A2780 cells were plated at a density of 5000 cells/well for OCAR-3 and MCF-7 and 3000 cells/well for A2780 cells. […] After incubation of 96 h at 37° C. (day 5), growth inhibitory effects were evaluated using the standard MTT assay.

MCF-7 cells = test: as above; type: cell-based; settings: Homo sapiens, MCF7, MCF-7, 96 h, read-out: Dox IC50
Procedure: as §1

OVCAR-3 cells [5] = test: as above; type: cell-based; settings: Homo sapiens, OVCAR-3, 96 h, read-out: Dox IC50
Procedure: as §1

Molecule | IC50 [1] | TEAC [2] | Atrium protection (250 μM) [3] | other results
O=c1c(O)c(-c2ccc(O)cc2)oc2cc(O)cc(O)c12 [Kaempferol, reference compound] | 6 µM | – | – | –
C[C@@H]1O[C@@H](OC[C@H]2O[C@@H](Oc3c(-c4ccc(O)c(O)c4)oc4cc(O)cc(O)c4c3=O)[C@H](O)[C@@H](O)[C@@H]2O)[C@H](O)[C@H](O)[C@H]1O [Rutin, reference compound] | 10 µM | – | – | –
C[N+](C)(C)CCCCCCCCOc1c(-c2ccc(O)c(O)c2)oc2ccccc2c1=O [Compound 9h, 3′4′-dihydroxy-3-(8-trimethylaminooctyloxy)flavone] | 1 ± 0.3 µM | 3.3 ± 0.6 mM | NP | –
C[N+](C)(C)CCCc1c(-c2ccc(O)c(O)c2)oc2cc(O)ccc2c1=O.[Cl-] [Compound 10d, 3-(7,3′,4′-trihydroxyflavon-3-yl)-propyltrimethylammoniumchloride] | 3.8 ± 0.1 µM | 5.1 ± 0.3 mM | 33% | –
O=c1c(O)c(-c2ccccc2)oc2cc(O)cc(O)c12 [Galangin, reference compound] | 6 µM | – | – | –
COc1c(-c2ccc(O)c(O)c2)oc2cc(O)ccc2c1=O [Compound 10b, 3-methoxy-7,3′,4′-trihydroxyflavone] | 1.6 ± 0.7 µM | 5.9 ± 0.7 mM | NP | IC50 (OVCAR-3 cells [4]; Homo sapiens): 15.8 ± 1.3 µM
O=c1c(O)c(-c2cc(O)c(O)c(O)c2)oc2cc(O)cc(O)c12 [Myricetin, reference compound] | 10 µM | – | – | –
COc1ccc2c(=O)cc(-c3ccc(O)c(O)c3)oc2c1 [Compound 8b, 3′,4′-dihydroxy-7-methoxyflavone] | 2.5 ± 0.8 µM | 3.3 ± 0.2 mM | – | melting point: > 240 °C
O=c1cc(-c2ccc(O)c(O)c2)oc2cc(OCCO)ccc12 [Compound 8c, 3′,4′-dihydroxy-7-hydroxyethoxyflavone] | 16.4 ± 1.7 µM | 4.3 ± 0.7 mM | – | –
O=c1c(OCCO)c(-c2ccc(O)c(O)c2)oc2ccccc12 [Compound 9c, 3′,4′-dihydroxy-3-hydroxyethoxyflavone] | 0.6 ± 0.1 µM | 4.4 ± 0.4 mM | NP | IC50 (OVCAR-3 cells [4]; Homo sapiens): 44.2 ± 20.1 µM
C[C@@H]1O[C@@H](OC[C@H]2O[C@@H](Oc3c(-c4ccc(O)c(O)c4)oc4ccccc4c3=O)[C@H](O)[C@@H](O)[C@@H]2O)[C@H](O)[C@H](O)[C@H]1O [Compound 9j, 3′,4′-dihydroxy-3-rutinoseflavone] | 15.7 ± 4.8 µM | 4.3 ± 0.3 mM | NP | –
CN(C)CCCOc1c(-c2ccc(O)c(O)c2)oc2ccccc2c1=O [Compound 9e, 3′,4′-dihydroxy-3-(3-dimethylaminopropoxy)flavone] | 1 ± 0.1 µM | 3.4 ± 0.4 mM | NP | –
O=c1c(OCCO)c(-c2ccc(O)c(O)c2)oc2cc(O)ccc12 [Compound 10c, 3-hydroxyethoxy-7,3′,4′-trihydroxyflavone] | 21.7 ± 6.1 µM | 3.4 ± 0.2 mM | 13% | –
COc1cccc2c1C(=O)c1c(O)c3c(c(O)c1C2=O)C[C@@](O)(C(=O)CO)C[C@@H]3O[C@H]1C[C@H](N)[C@H](O)[C@H](C)O1 [Dox, doxorubicin, reference compound] | – | – | – | IC50 (A2780 cells): 0.0038 µM; IC50 (MCF-7 cells): 0.004 µM; IC50 (OVCAR-3 cells [5]): 0.0065 µM
C[N+](C)(C)CCCOc1c(-c2ccc(O)c(O)c2)oc2ccccc2c1=O [Compound 9f, 3′4′-dihydroxy-3-(3-trimethylaminopropoxy)flavone] | 1.2 ± 0.3 µM | 4.2 ± 0.2 mM | NP | –
O=c1cc(-c2ccc(O)c(O)c2)oc2cc(O)cc(O)c12 [Lutcolin, reference compound] | 17 µM | – | – | –
O=c1c(O)c(-c2ccc(O)c(O)c2)oc2ccccc12 [Compound 9a, 3′3,3′,4′-trihydroxyflavone] | 1.8 ± 1 µM | 4.5 ± 0.5 mM | NP^1 | IC50 (OVCAR-3 cells [4]): 21 ± 2.4 µM
C[N+](C)(C)CCCOc1ccc2c(=O)cc(-c3ccc(O)c(O)c3)oc2c1 [Compound 8d, 3′4′-dihydroxy-7-(3-trimethylaminopropoxy)flavone] | 37.3 ± 2.4 µM | 1.9 ± 0.3 mM | – | –
C[C@@H]1O[C@@H](OC[C@H]2O[C@@H](Oc3c(-c4ccc(O)c(O)c4)oc4cc(OCCO)cc(O)c4c3=O)[C@H](O)[C@@H](O)[C@@H]2O)[C@H](O)[C@H](O)[C@H]1O [monoHER, 7-monohydroxyethylrutoside, reference compound] | 12.7 ± 3.7 µM | 3.0 ± 0.2 mM | 52% | –
O=c1c(O)c(-c2ccc(O)c(O)c2)oc2cc(O)cc(O)c12 [Quercetin, reference compound] | 9 µM | – | – | IC50 (OVCAR-3 cells [4]; Homo sapiens): 126 ± 50.5 µM
CN(C)CCCOc1ccc2c(=O)cc(-c3ccc(O)c(O)c3)oc2c1 [Compound 8e, 3′,4′-dihydroxy-7-(3-dimethylaminopropoxy)flavone] | 8.1 ± 1.1 µM | 2.9 ± 0.4 mM | – | –
Fisetin [reference compound] | 16 µM | – | – | –
O=C(O)COc1c(-c2ccc(O)c(O)c2)oc2ccccc2c1=O [Compound 9d, 3′4′-dihydroxy-3-(2-ethoxycarboxylic acid)flavone] | 6.5 ± 1 µM | 7.6 ± 0.6 mM | NP | –
O=c1cc(-c2ccc(O)c(O)c2)oc2cc(O)ccc12 [Compound 8a, 3′,4′,7-trihydroxyflavone] | 11 ± 1.3 µM | 4.3 ± 0.2 mM | – | –
COc1c(-c2ccc(O)c(O)c2)oc2ccccc2c1=O [Compound 9b, 3′4′-dihydroxy-3-methoxyflavone] | 1.3 ± 0.7 µM | 4.4 ± 0.3 mM | NP | IC50 (OVCAR-3 cells [4]): 2.2 ± 0.4 µM
C[N+](C)(C)CCCCCCOc1c(-c2ccc(O)c(O)c2)oc2ccccc2c1=O [Compound 9g, 3′4′-dihydroxy-3-(6-trimethylaminohexyloxy)flavone] | 1.4 ± 0.3 µM | 4.3 ± 0.6 mM | NP | –
